Data from US20230365592A1 (Agios Pharmaceuticals, Inc., priority 2022, published 2023).

biological target: T1, human PAH with the R408W mutation (Homo sapiens, UniProt P00439, R408W); assay: Cell Based Phenylalanine Flux Assay; conditions: A375 cells expressing human R408W PAH; 24 hrs compound incubation; 13C-Tyrosine by LC-MS; average where tested multiple times; read-out: AC50;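 also: after compound treatment, cells received sepiapterin plus isotope-labelled Phenylalanine for 4 hours, then labelled Tyrosine in the medium was quantified, 10-point 2-fold dilution series run in duplicate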
T1 construct: expressed in transfected cells
T1 sequence (P00439 1-452 R408W): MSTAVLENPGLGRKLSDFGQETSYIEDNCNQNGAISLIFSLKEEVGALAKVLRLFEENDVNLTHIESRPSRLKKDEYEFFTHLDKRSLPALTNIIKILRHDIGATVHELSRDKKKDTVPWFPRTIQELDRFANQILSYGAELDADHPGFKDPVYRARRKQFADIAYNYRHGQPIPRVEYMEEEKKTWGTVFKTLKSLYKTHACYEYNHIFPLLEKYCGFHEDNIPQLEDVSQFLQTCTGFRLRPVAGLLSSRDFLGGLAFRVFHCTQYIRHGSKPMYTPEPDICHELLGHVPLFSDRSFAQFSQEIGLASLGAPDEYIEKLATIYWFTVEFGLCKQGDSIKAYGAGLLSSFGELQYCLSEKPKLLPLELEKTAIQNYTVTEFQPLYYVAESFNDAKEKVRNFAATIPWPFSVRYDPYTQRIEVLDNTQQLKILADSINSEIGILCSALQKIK

Row | AC50 [µM] | Compound
1 | 1 to 5 | O=C(c1nnc(-c2cnn(C(F)F)c2)o1)N1CCc2[nH]cnc2[C@@H]1c1cc2ccccn2n1 [Example 651, (R)-(5-(1-(difluoromethyl)-1H-pyrazol-4-yl)-1,3,4-oxadiazol-2-yl)(4-(pyrazolo[1,5-a]pyridin-2-yl)-6,7-dihydro-1H-imidazo[4,5-c]pyridin-5(4H)-yl)methanone]
2 | < 0.5 | O=C(c1nnc(-c2ccc(F)cc2F)o1)N1CCc2[nH]cnc2[C@H]1c1cc2ccccn2n1 [Example 652, (S)-(5-(2,4-difluorophenyl)-1,3,4-oxadiazol-2-yl)(4-(pyrazolo[1,5-a]pyridin-2-yl)-6,7-dihydro-1H-imidazo[4,5-c]pyridin-5(4H)-yl)methanone]
3 | > 5 | O=C(c1nnc(-c2ccc(F)cc2F)o1)N1CCc2[nH]cnc2[C@@H]1c1cc2ccccn2n1 [Example 653, (R)-(5-(2,4-difluorophenyl)-1,3,4-oxadiazol-2-yl)(4-(pyrazolo[1,5-a]pyridin-2-yl)-6,7-dihydro-1H-imidazo[4,5-c]pyridin-5(4H)-yl)methanone]
4 | < 0.5 | Cc1cc(F)ccc1-c1nnc(C(=O)N2CCc3[nH]cnc3[C@H]2c2cc3ccccn3n2)o1 [Example 654, (S)-(5-(4-fluoro-2-methylphenyl)-1,3,4-oxadiazol-2-yl)(4-(pyrazolo[1,5-a]pyridin-2-yl)-6,7-dihydro-1H-imidazo[4,5-c]pyridin-5(4H)-yl)methanone]
5 | < 0.5 | O=C(c1ccnn1C(F)F)N1CCc2[nH]cnc2[C@H]1c1cc2ccccn2n1 [Example 656, (S)-(1-(difluoromethyl)-1H-pyrazol-5-yl)(4-(pyrazolo[1,5-a]pyridin-2-yl)-6,7-dihydro-1H-imidazo[4,5-c]pyridin-5(4H)-yl)methanone]
6 | > 5 | O=C(c1ccnn1C(F)F)N1CCc2[nH]cnc2[C@@H]1c1cc2ccccn2n1 [Example 657, (R)-(1-(difluoromethyl)-1H-pyrazol-5-yl)(4-(pyrazolo[1,5-a]pyridin-2-yl)-6,7-dihydro-1H-imidazo[4,5-c]pyridin-5(4H)-yl)methanone]
7 | 1 to 5 | Cn1ccc(-c2nnc(C(=O)N3CCc4[nH]cnc4[C@@H]3c3cc4ccccn4n3)o2)n1 [Example 659, (R)-(5-(1-methyl-1H-pyrazol-3-yl)-1,3,4-oxadiazol-2-yl)(4-(pyrazolo[1,5-a]pyridin-2-yl)-6,7-dihydro-1H-imidazo[4,5-c]pyridin-5(4H)-yl)methanone]
8 | 0.5 to 1 | Cn1nccc1C(=O)N1CCc2[nH]cnc2[C@H]1c1cc2ccccn2n1 [Example 660, (S)-(1-methyl-1H-pyrazol-5-yl)(4-(pyrazolo[1,5-a]pyridin-2-yl)-6,7-dihydro-1H-imidazo(4,5-c]pyridin-5(4H)-yl)methanone]
9 | > 5 | Cn1nccc1C(=O)N1CCc2[nH]cnc2[C@@H]1c1cc2ccccn2n1 [Example 661, (R)-(1-methyl-1H-pyrazol-5-yl)(4-(pyrazolo[1,5-a]pyridin-2-yl)-6,7-dihydro-1H-imidazo[4,5-c]pyridin-5(4H)-yl)methanone]
10 | < 0.5 | Cn1cc(C(=O)N2CCc3[nH]cnc3[C@H]2c2cc3ccccn3n2)c(C(F)F)n1 [Example 662, (S)-(3-(difluoromethyl)-1-methyl-1H-pyrazol-4-yl)(4-(pyrazolo[1,5-a]pyridin-2-yl)-6,7-dihydro-1H-imidazo[4,5-c]pyridin-5(4H)-yl)methanone]
11 | 1 to 5 | Cn1cc(C(=O)N2CCc3[nH]cnc3[C@@H]2c2cc3ccccn3n2)c(C(F)F)n1 [Example 663, (R)-(3-(difluoromethyl)-1-methyl-1H-pyrazol-4-yl)(4-(pyrazolo[1,5-a]pyridin-2-yl)-6,7-dihydro-1H-imidazo[4,5-c]pyridin-5(4H)-yl)methanone]
12 | > 5 | Cn1cc(C(=O)N2CCc3[nH]cnc3[C@@H]2c2cc3ccccn3n2)c(Cl)n1 [Example 664, (R)-(3-chloro-1-methyl-1H-pyrazol-4-yl)(4-(pyrazolo[1,5-a]pyridin-2-yl)-6,7-dihydro-1H-imidazo[4,5-c]pyridin-5(4H)-yl)methanone]
13 | < 0.5 | Cn1cc(C(=O)N2CCc3[nH]cnc3[C@H]2c2cc3ccccn3n2)c(Cl)n1 [Example 665, (S)-(3-chloro-1-methyl-1H-pyrazol-4-yl)(4-(pyrazolo[1,5-a]pyridin-2-yl)-6,7-dihydro-1H-imidazo[4,5-c]pyridin-5(4H)-yl)methanone]
14 | 0.5 to 1 | O=C(c1nnc(-c2ccn(C(F)F)n2)o1)N1CCc2[nH]cnc2[C@H]1c1cc2ccccn2n1 [Example 666, (S)-(5-(1-(difluoromethyl)-1H-pyrazol-3-yl)-1,3,4-oxadiazol-2-yl)(4-(pyrazolo[1,5-a]pyridin-2-yl)-6,7-dihydro-1H-imidazo[4,5-c]pyridin-5(4H)-yl)methanone]
15 | > 5 | O=C(c1nnc(-c2ccn(C(F)F)n2)o1)N1CCc2[nH]cnc2[C@@H]1c1cc2ccccn2n1 [Example 667, (R)-(5-(1-(difluoromethyl)-1H-pyrazol-3-yl)-1,3,4-oxadiazol-2-yl)(4-(pyrazolo[1,5-a]pyridin-2-yl)-6,7-dihydro-1H-imidazo[4,5-c)pyridin-5(4H)-yl)methanone]
16 | > 5 | O=C(c1nnc(-c2cc(C(F)(F)F)ccn2)o1)N1CCc2[nH]cnc2[C@@H]1c1cc2ccccn2n1 [Example 668, (R)-(4-(pyrazolo[1,5-a]pyridin-2-yl)-6,7-dihydro-1H-imidazo[4,5-c]pyridin-5(4H)-yl)(5-(4-(trifluoromethyl)pyridin-2-yl)-1,3,4-oxadiazol-2-yl)methanone]
17 | < 0.5 | O=C(c1nnc(-c2cc(C(F)(F)F)ccn2)o1)N1CCc2[nH]cnc2[C@H]1c1cc2ccccn2n1 [Example 669, (S)-(4-(pyrazolo[1,5-a]pyridin-2-yl)-6,7-dihydro-1H-imidazo[4,5-c]pyridin-5(4H)-yl)(5-(4-(trifluoromethyl)pyridin-2-yl)-1,3,4-oxadiazol-2-yl)methanone]
18 | < 0.5 | CC(C)(O)c1nc(C(F)F)c(C(=O)N2CCc3[nH]cnc3[C@H]2c2cc3ccccn3n2)o1 [Example 670, (S)-(4-(difluoromethyl)-2-(2-hydroxypropan-2-yl)oxazol-5-yl)(4-(pyrazolo[1,5-a]pyridin-2-yl)-6,7-dihydro-1H-imidazo[4,5-c]pyridin-5(4H)-yl)methanone]
19 | > 5 | CC(C)(O)c1nc(C(F)F)c(C(=O)N2CCc3[nH]cnc3[C@@H]2c2cc3ccccn3n2)o1 [Example 671, (R)-(4-(difluoromethyl)-2-(2-hydroxypropan-2-yl)oxazol-5-yl)(4-(pyrazolo[1,5-a]pyridin-2-yl)-6,7-dihydro-1H-imidazo[4,5-c]pyridin-5(4H)-yl)methanone]
20 | > 5 | Cc1ccc(-c2nnc(C(=O)N3CCc4[nH]cnc4[C@@H]3c3cc4ccccn4n3)o2)nc1 [Example 672, (R)-(5-(5-methylpyridin-2-yl)-1,3,4-oxadiazol-2-yl)(4-(pyrazolo[1,5-a]pyridin-2-yl)-6,7-dihydro-1H-imidazo[4,5-c]pyridin-5(4H)-yl)methanone]
21 | 0.5 to 1 | Cc1ccc(-c2nnc(C(=O)N3CCc4[nH]cnc4[C@H]3c3cc4ccccn4n3)o2)nc1 [Example 673, (S)-(5-(5-methylpyridin-2-yl)-1,3,4-oxadiazol-2-yl)(4-(pyrazolo[1,5-a]pyridin-2-yl)-6,7-dihydro-1H-imidazo[4,5-c]pyridin-5(4H)-yl)methanone]
22 | 1 to 5 | O=C(c1cn(-c2ccccn2)nc1Cl)N1CCc2[nH]cnc2[C@H]1c1cc2ccccn2n1 [Example 674, (S)-(3-chloro-1-(pyridin-2-yl)-1H-pyrazol-4-yl)(4-(pyrazolo[1,5-a]pyridin-2-yl)-6,7-dihydro-1H-imidazo[4,5-c]pyridin-5(4H)-yl)methanone]
23 | > 5 | O=C(c1cn(-c2ccccn2)nc1Cl)N1CCc2[nH]cnc2[C@@H]1c1cc2ccccn2n1 [Example 675, (R)-(3-chloro-1-(pyridin-2-yl)-1H-pyrazol-4-yl)(4-(pyrazolo[1,5-a]pyridin-2-yl)-6,7-dihydro-1H-imidazo[4,5-c]pyridin-5(4H)-yl)methanone]
24 | < 0.5 | CC(C)(O)c1nc(Br)c(C(=O)N2CCc3[nH]cnc3[C@H]2c2cc3ccccn3n2)o1 [Example 676, (S)-(4-bromo-2-(2-hydroxypropan-2-yl)oxazol-5-yl)(4-(pyrazolo[1,5-a]pyridin-2-yl)-6,7-dihydro-1H-imidazo[4,5-c]pyridin-5(4H)-yl)methanone]
25 | > 5 | CC(C)(O)c1nc(Br)c(C(=O)N2CCc3[nH]cnc3[C@@H]2c2cc3ccccn3n2)o1 [Example 677, (R)-(4-bromo-2-(2-hydroxypropan-2-yl)oxazol-5-yl)(4-(pyrazolo[1,5-a]pyridin-2-yl)-6,7-dihydro-1H-imidazo[4,5-c]pyridin-5(4H)-yl)methanone]
26 | 1 to 5 | Cn1cc(-c2nnc(C(=O)N3CCc4[nH]cnc4[C@H]3c3cc4ccccn4n3)o2)c(C(F)(F)F)n1 [Example 678, (S)-(5-(1-methyl-3-(trifluoromethyl)-1H-pyrazol-4-yl)-1,3,4-oxadiazol-2-yl)(4-(pyrazolo[1,5-a]pyridin-2-yl)-6,7-dihydro-1H-imidazo[4,5-c]pyridin-5(4H)-yl)methanone]
27 | > 5 | Cn1cc(-c2nnc(C(=O)N3CCc4[nH]cnc4[C@@H]3c3cc4ccccn4n3)o2)c(C(F)(F)F)n1 [Example 679, (R)-(5-(1-methyl-3-(trifluoromethyl)-1H-pyrazol-4-yl)-1,3,4-oxadiazol-2-yl)(4-(pyrazolo[1,5-a]pyridin-2-yl)-6,7-dihydro-1H-imidazo[4,5-c]pyridin-5(4H)-yl)methanone]
